Read-outs that look alike come from different tables or passages of the source.
Target: T1, Human M4 (Homo sapiens, UniProt P08173)
T1 construct: expressed in transfected cells
T1 sequence (P08173 1-479): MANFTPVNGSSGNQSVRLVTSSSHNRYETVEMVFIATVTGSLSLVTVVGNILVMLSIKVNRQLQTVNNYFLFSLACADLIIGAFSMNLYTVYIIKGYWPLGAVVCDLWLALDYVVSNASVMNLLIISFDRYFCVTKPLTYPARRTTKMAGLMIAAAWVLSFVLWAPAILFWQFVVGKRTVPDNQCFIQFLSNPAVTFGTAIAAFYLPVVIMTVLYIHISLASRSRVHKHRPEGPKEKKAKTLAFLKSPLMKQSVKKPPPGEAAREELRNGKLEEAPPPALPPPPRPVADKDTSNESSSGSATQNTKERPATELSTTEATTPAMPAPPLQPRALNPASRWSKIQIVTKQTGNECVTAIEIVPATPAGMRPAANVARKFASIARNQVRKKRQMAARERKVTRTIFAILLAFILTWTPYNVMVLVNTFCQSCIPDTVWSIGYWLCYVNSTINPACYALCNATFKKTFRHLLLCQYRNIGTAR
Assay: mAChR M4 cell-based functional assay (calcium flux, potentiation of EC20 acetylcholine response), hM4-Gqi5 CHO-K1 cells
Conditions: for Emax at 30 µM: % ACh maximum at 30 μM; for EC50: calcium flux, read-out: Human M4 EC50
Outline: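 CHO-K1 cells stably expressing human M4 with chimeric Gqi5, loaded with Fluo-4 AM 50 min at 37 °C; calcium flux read by FDSS. 11-point 1:3 compound curves added, then EC20 acetylcholine at 144 s; potentiation of the EC20 response fitted by four-parameter logistic to give EC50 and Emax.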

[1] = CHO-K1, Table 3, Human M4, read-out: Emax (% ACh maximum at 30 μM)
[2] = Table 3, potentiation of EC20 acetylcholine response, CHO-K1 cells
[3] = CHO-K1, human M4, read-out: Emax
[4] = hM4-Gqi5 CHO-K1 cells, PAM of EC20 acetylcholine
[5] = CHO-K1, Table 4, Human M4, read-out: Emax (% ACh maximum at 30 μM)
[6] = Table 4, potentiation of EC20 acetylcholine response, CHO-K1 cells

Row | Emax at 30 µM [1] [%] | EC50 [2] [nM] | Emax at 30 µM [3] [%] | EC50 [4] [nM] | SMILES | also measured
1 | 102 | 234 | – | – | Cc1cc2nncn2nc1N1CCc2ncc(Nc3ccnn3C)cc2C1 [Compound 190, N-(1-methyl-1H-pyrazol-5-yl)-6-(7-methyl-[1,2,4]triazolo[4,3-b]pyridazin-6-yl)-5,6,7,8-tetrahydro-1,6-naphthyridin-3-amine] | –
2 | – | – | 100 | 881 | Cc1c(N2CCc3ncc(C(=O)NCc4cccs4)cc3C2)nn2cnnc2c1C [Compound 121, 6-(7,8-dimethyl-[1,2,4]triazolo[4,3-b]pyridazin-6-yl)-N-(2-thienylmethyl)-7,8-dihydro-5H-1,6-naphthyridine-3-carboxamide] | –
3 | 54 | 3250 | – | – | Cc1cnc2c(c1)CN(c1nn3cc(C(=O)NC4CC4)nc3cc1C)CC2 [Compound 168, N-cyclopropyl-7-methyl-6-(3-methyl-7,8-dihydro-1,6-naphthyridin-6(5H)-yl)imidazo[1,2-b]pyridazine-2-carboxamide] | –
4 | – | – | 91 | – | Cc1c(N2CCc3ncc(C(=O)N4CCCC4)cc3C2)nn2cnnc2c1C [Compound 56, [6-(7,8-dimethyl-[1,2,4]triazolo[4,3-b]pyridazin-6-yl)-7,8-dihydro-5H-1,6-naphthyridin-3-yl]-pyrrolidin-1-yl-methanone] | –
5 | 83 | 353 | – | – | Cc1c(N2CCc3ncc(N4CCOc5ccc(F)cc54)cc3C2)nn2c(C(F)(F)F)nnc2c1C [Compound 232, 4-(6-(7,8-dimethyl-3-(trifluoromethyl)-[1,2,4]triazolo[4,3-b]pyridazin-6-yl)-5,6,7,8-tetrahydro-1,6-naphthyridin-3-yl)-6-fluoro-3,4-dihydro-2H-benzo[b][1,4]oxazine] | –
6 | – | – | 93 | 169 | Cc1c(N2CCc3ncc(-c4cnn(C5CC5)c4)cc3C2)nn2cnnc2c1C [Compound 142, 3-(1-cyclopropylpyrazol-4-yl)-6-(7,8-dimethyl-[1,2,4]triazolo[4,3-b]pyridazin-6-yl)-7,8-dihydro-5H-1,6-naphthyridine] | –
7 | – | – | 101 | 269 | Cc1c(N2CCc3ncc(-c4cncs4)cc3C2)nn2c(C)nnc2c1C [Compound 90, 5-[6-(3,7,8-trimethyl-[1,2,4]triazolo[4,3-b]pyridazin-6-yl)-7,8-dihydro-5H-1,6-naphthyridin-3-yl]thiazole] | –
8 | – | – | 108 | 92.9 | Cc1c(N2CCc3ncc(C(C)(C)O)cc3C2)nn2cnnc2c1C [Compound 62, 2-[6-(7,8-Dimethyl-[1,2,4]triazolo[4,3-b]pyridazin-6-yl)-7,8-dihydro-5H-1,6-naphthyridin-3-yl]propan-2-ol] | –
9 | 111 | 1180 | – | – | Cc1cnc2c(c1)CN(c1nn3cc(C(=O)N4CCN(C)CC4)nc3cc1C)CC2 [Compound 169, (7-methyl-6-(3-methyl-7,8-dihydro-1,6-naphthyridin-6(5H)-yl)imidazo[1,2-b]pyridazin-2-yl)(4-methylpiperazin-1-yl)methanone] | –
10 | – | – | 89 | 171 | Cc1nc(C)c(-c2cnc3c(c2)CN(c2nn4cnnc4c(C)c2C)CC3)s1 [Compound 61, 5-[6-(7,8-dimethyl-[1,2,4]triazolo[4,3-b]pyridazin-6-yl)-7,8-dihydro-5H-1,6-naphthyridin-3-yl]-2,4-dimethyl-thiazole] | –
11 | – | – | 93 | 173 | Cc1nn(C)c(C)c1-c1cnc2c(c1)CN(c1nn3c(C(F)(F)F)nnc3c(C)c1C)CC2 [Compound 93, 6-[7,8-dimethyl-3-(trifluoromethyl)-[1,2,4]triazolo[4,3-b]pyridazin-6-yl]-3-(1,3,5-trimethylpyrazol-4-yl)-7,8-dihydro-5H-1,6-naphthyridine] | –
12 | – | – | 85 | 241 | CSc1ccccc1Nc1cnc2c(c1)CN(c1nn3cnnc3c(C)c1C)CC2 [Compound 55, 6-(7,8-dimethyl-[1,2,4]triazolo[4,3-b]pyridazin-6-yl)-N-(2-methylsulfanylphenyl)-7,8-dihydro-5H-1,6-naphthyridin-3-amine] | –
13 | – | – | 67 | 402 | Cc1c(N2CCc3ncc(Nc4ccccc4N(C)C)cc3C2)nn2cnnc2c1C [Compound 51, N1-[6-(7,8-dimethyl-[1,2,4]triazolo[4,3-b]pyridazin-6-yl)-7,8-dihydro-5H-1,6-naphthyridin-3-yl]-N2,N2-dimethyl-benzene-1,2-diamine] | –
14 | 85 | 578 | – | – | COc1cnc(Cl)c(-c2cnc3c(c2)CN(c2nn4cnnc4c(C)c2C)CC3)c1 [Compound 178, 3-(2-chloro-5-methoxypyridin-3-yl)-6-(7,8-dimethyl-[1,2,4]triazolo[4,3-b]pyridazin-6-yl)-5,6,7,8-tetrahydro-1,6-naphthyridine] | –
15 | – | – | – | – | CCOC(=O)c1c(C)nc2cc(C)c(N3CCc4ncc(N5CCCn6nccc65)cc4C3)nn12 [Compound 336, ethyl 6-(3-(6,7-dihydropyrazolo[1,5-a]pyrimidin-4(5H)-yl)-7,8-dihydro-1,6-naphthyridin-6(5H)-yl)-2,7-dimethylimidazo[1,2-b]pyridazine-3-carboxylate] | Emax at 30 µM [5]: 72%; EC50 [6]: 359 nM
16 | – | – | – | 161 | Cc1c(N2CCc3ncc(Nc4ccccc4F)cc3C2)nn2cnnc2c1C [Compound 33, 6-(7,8-Dimethyl-[1,2,4]triazolo[4,3-b]pyridazin-6-yl)-N-(2-fluorophenyl)-5,6,7,8-tetrahydro-1,6-naphthyridin-3-amine] | Emax (CHO-K1): 94%
17 | – | – | – | – | Cc1c(C2CC2)c(N2CCc3ncc(C(F)(F)F)cc3C2)nn2cnnc12 [Compound 346, 6-(7-Cyclopropyl-8-methyl-[1,2,4]triazolo[4,3-b]pyridazin-6-yl)-3-(trifluoromethyl)-5,6,7,8-tetrahydro-1,6-naphthyridine] | Emax at 30 µM [5]: 70%; EC50 [6]: 2110 nM
18 | 85 | 435 | – | – | Cc1c(N2CCc3ncc(-c4ccc(N5CCC(F)(F)C5)nc4)cc3C2)nn2cnnc2c1C [Compound 225, 3-(6-(3,3-difluoropyrrolidin-1-yl)pyridin-3-yl)-6-(7,8-dimethyl-[1,2,4]triazolo[4,3-b]pyridazin-6-yl)-5,6,7,8-tetrahydro-1,6-naphthyridine] | –
19 | 97 | 4010 | – | – | Cc1cc2nncn2nc1N1CCc2ncc(C(C)(C)O)cc2C1 [Compound 233, 2-(6-(7-methyl-[1,2,4]triazolo[4,3-b]pyridazin-6-yl)-5,6,7,8-tetrahydro-1,6-naphthyridin-3-yl)propan-2-ol] | –
20 | – | – | 68 | 1340 | Cc1cc2nncn2nc1N1CCc2ncc(-c3cc(-c4ccccc4)no3)cc2C1 [Compound 133, 5-[6-(7-methyl-[1,2,4]triazolo[4,3-b]pyridazin-6-yl)-7,8-dihydro-5H-1,6-naphthyridin-3-yl]-3-phenyl-isoxazole] | –
21 | 93 | 177 | – | – | Cc1c(N2CCc3ncc(Oc4ccc(F)cc4F)cc3C2)nn2cnnc2c1C [Compound 302, 3-(2,4-difluorophenoxy)-6-(7,8-dimethyl-[1,2,4]triazolo[4,3-b]pyridazin-6-yl)-5,6,7,8-tetrahydro-1,6-naphthyridine] | –
22 | – | – | – | – | [2H]C1([2H])Cc2ncc(Nc3ccccc3F)cc2C([2H])([2H])N1c1nn2cnnc2cc1C [Compound 359, N-(2-fluorophenyl)-6-(7-methyl-[1,2,4]triazolo[4,3-b]pyridazin-6-yl)-5,6,7,8-tetrahydro-1,6-naphthyridin-5,5,7,7-d4-3-amine] | Emax at 30 µM [5]: 116%; EC50 [6]: 7 nM
23 | 80 | 140 | – | – | Cc1c(N2CCc3ncc(-c4ccns4)cc3C2)nn2c(C(F)(F)F)nnc2c1C [Compound 252, 5-(6-(7,8-dimethyl-3-(trifluoromethyl)-[1,2,4]triazolo[4,3-b]pyridazin-6-yl)-5,6,7,8-tetrahydro-1,6-naphthyridin-3-yl)isothiazole] | –
24 | – | – | 94 | 169 | Cc1ccc(Nc2cnc3c(c2)CN(c2nn4cnnc4c(C)c2C)CC3)c(F)n1 [Compound 81, 6-(7,8-dimethyl-[1,2,4]triazolo[4,3-b]pyridazin-6-yl)-N-(2-fluoro-6-methyl-3-pyridyl)-7,8-dihydro-5H-1,6-naphthyridin-3-amine] | –
25 | – | – | – | – | Cc1cc2nncn2nc1N1CCc2ncc(Nc3ccncc3F)cc2C1 [Compound 360, N-(3-fluoropyridin-4-yl)-6-(7-methyl-[1,2,4]triazolo[4,3-b]pyridazin-6-yl)-5,6,7,8-tetrahydro-1,6-naphthyridin-3-amine] | Emax at 30 µM [5]: 100%; EC50 [6]: 5 nM
26 | – | – | 62 | 180 | Cc1c(N2CCc3ncc(Nc4ncc(F)cc4F)cc3C2)nn2cnnc2c1C [Compound 79, N-(3,5-difluoro-2-pyridyl)-6-(7,8-dimethyl-[1,2,4]triazolo[4,3-b]pyridazin-6-yl)-7,8-dihydro-5H-1,6-naphthyridin-3-amine] | –

From patent publication US20250002507A1, “7,8-DIHYDRO-5H-1,6-NAPHTHYRIDINE DERIVATIVES AS POSITIVE ALLOSTERIC MODULATORS OF THE MUSCARINIC ACETYLCHOLINE RECEPTOR M4 FOR TREATING NEUROLOGICAL AND PSYCHIATRIC DISORDERS” (Vanderbilt University, priority 2021, published 2025)
